How the values were obtained:
Experiment in all cases: relative viability (nuclei count vs DMSO), 5 days (fraction); higher = more cells survive
[1] = compound: COC1=CC(c2cc3ccccc3[nH]2)=N/C1=C\c1[nH]c(C)cc1C [Obatoclax] + COc1cccc2cc(-c3nc([C@H]4CC[C@H](C(=O)O)CC4)n4ncnc(N)c34)[nH]c12 [OSI-027] (partner 0.5 µM)
Method in brief: (§1)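 Values are medians from duplicate plates. Each reflects relative viability, defined as the nuclei count of treated wells over that of vehicle wells. Lung cancer cell lines in 1536-well plates were pin-tool dosed one day after seeding with one drug alone or with a fixed anchor-drug dose plus five library-drug doses (not always all listed) in √10 steps, then fixed, stained and imaged at 4× after 5 days.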

[2] = compound: CC1=CC(=NN1)NC2=CC(=NC(=N2)/C=C/C3=CC=CC=C3)N4CCN(CC4)C + Cc1cc(Nc2cc(N3CCN(C)CC3)nc(Sc3ccc(NC(=O)C4CC4)cc3)n2)n[nH]1 [Tozasertib] (partner 0.1 µM)
Method in brief: as §1

[3] = compound: CC(C)C[C@H](NC(=O)[C@H](Cc1ccccc1)NC(=O)c1cnccn1)B(O)O [Bortezomib] + CC(=O)Nc1cccc(-n2c(=O)n(C3CC3)c(=O)c3c(Nc4ccc(I)cc4F)n(C)c(=O)c(C)c32)c1 [Trametinib] (partner 0.02 µM)
Method in brief: as §1

[4] = compound: COC1=CC(c2cc3ccccc3[nH]2)=N/C1=C\c1[nH]c(C)cc1C [Obatoclax] + O=C(CCCCCCC(=O)Nc1ccccc1)NO [Vorinostat] (partner 1 µM)
Method in brief: as §1

Row | Cell Line | relative viability ([1]; first compound 0.01 µM) | relative viability ([1]; first compound 0.03162 µM) | relative viability ([1]; first compound 0.1 µM) | relative viability ([1]; first compound 0.3162 µM) | relative viability ([1]; first compound 1 µM) | relative viability ([2]; first compound 0.08 µM) | relative viability ([2]; first compound 0.253 µM) | relative viability ([2]; first compound 0.8 µM) | relative viability ([2]; first compound 2.53 µM) | relative viability ([2]; first compound 8 µM) | relative viability ([3]; first compound 0.0002 µM) | relative viability ([3]; first compound 0.000632 µM) | relative viability ([3]; first compound 0.002 µM) | relative viability ([3]; first compound 0.006325 µM) | relative viability ([3]; first compound 0.02 µM) | relative viability ([4]; first compound 0.01 µM) | relative viability ([4]; first compound 0.03162 µM) | relative viability ([4]; first compound 0.1 µM) | relative viability ([4]; first compound 0.3162 µM) | relative viability ([4]; first compound 1 µM)
1 | NCI-H727 | 0.776 | 0.554 | 0.857 | 0.61 | 0.453 | 0.568 | 0.533 | 0.578 | 0.407 | 0.267 | 0.367 | 0.43 | 0.363 | 0.413 | 0.266 | 1.18 | 1.14 | 1.29 | 1.05 | 1.3
2 | NCI-H1944 | 0.457 | 0.383 | 0.381 | 0.415 | 0.448 | 0.266 | 0.284 | 0.223 | 0.184 | 0.136 | 0.43 | 0.371 | 0.397 | 0.297 | 0.193 | 0.519 | 0.484 | 0.57 | 0.561 | 0.527
3 | NCI-H1437 | 0.868 | 0.889 | 0.835 | 0.859 | 0.752 | 0.422 | 0.462 | 0.424 | 0.344 | 0.201 | 0.537 | 0.584 | 0.551 | 0.178 | 0.226 | 0.834 | 0.808 | 0.791 | 0.696 | 0.589
4 | NCI-H441 | 0.772 | 0.502 | 0.704 | 0.354 | 0.271 | 0.642 | 0.592 | 0.599 | 0.287 | 0.189 | 0.428 | 0.482 | 0.153 | 0.131 | 0.127 | 0.768 | 0.837 | 0.728 | 0.733 | 0.645
5 | EMC-BAC-2 | 0.413 | 0.382 | 0.297 | 0.332 | 0.299 | 0.282 | 0.249 | 0.254 | 0.234 | 0.149 | 1.02 | 1.01 | 0.803 | 0.341 | 0.307 | 0.437 | 0.358 | – | 0.446 | 0.405
6 | NCI-H647 | 0.606 | 0.692 | 0.585 | 0.346 | 0.184 | 0.236 | 0.202 | 0.257 | 0.123 | 0.108 | 0.471 | 0.404 | 0.542 | 0.0211 | 0.0513 | 0.667 | 0.523 | 0.652 | 0.304 | 0.161
7 | CAL-12T | 0.62 | 0.609 | 0.829 | 0.138 | 0.128 | 0.25 | 0.303 | 0.251 | 0.172 | 0.143 | 0.378 | 0.335 | 0.327 | 0.156 | 0.133 | 0.847 | 0.883 | 1.05 | 0.521 | 0.142
8 | NCI-H1792 | 0.793 | 0.716 | – | 0.624 | 0.932 | – | – | – | – | – | 0.506 | 0.413 | 0.446 | 0.292 | 0.0651 | – | – | – | – | –
9 | H3255 | 0.584 | 0.591 | 0.751 | 0.617 | 0.666 | 0.79 | 0.71 | 0.374 | 0.513 | 0.297 | 0.593 | 0.69 | 0.331 | 0.239 | 0.274 | 0.975 | 0.719 | – | 0.823 | 0.858
10 | HCC-78 | 0.393 | 0.341 | 0.586 | 0.539 | 0.378 | 0.365 | 0.427 | 0.352 | 0.304 | 0.253 | 0.799 | 0.699 | 0.312 | 0.196 | 0.233 | 0.384 | 0.441 | 0.551 | 0.438 | 0.527
11 | NCI-H2405 | 0.65 | 0.688 | – | 0.643 | 0.727 | 0.751 | 0.72 | 0.674 | 0.421 | 0.185 | 0.579 | 0.646 | 0.523 | 0.223 | 0.188 | 1.05 | 1 | – | 0.984 | 0.981
12 | NCI-H3122 | 0.931 | 0.976 | 1.02 | 0.859 | 0.2 | 0.373 | 0.408 | 0.408 | 0.33 | 0.231 | 0.215 | 0.276 | 0.222 | 0.232 | 0.124 | 0.981 | 0.783 | 1.03 | 0.991 | 1.07
13 | NCI-H1563 | 0.741 | 0.797 | 0.87 | 0.705 | 0.619 | – | – | – | – | – | – | – | – | – | – | – | – | – | – | –
14 | HCC-44 | 0.577 | 0.422 | 0.219 | 0.441 | 0.333 | 0.83 | 1.05 | 0.67 | 0.268 | 0.146 | 1.1 | 1.04 | 0.984 | 0.92 | 0.277 | 1.04 | 1.06 | 1.05 | 1.1 | 1.03
15 | PC-3 [JPC-3] | 0.808 | 0.728 | 0.791 | 0.731 | 0.752 | 0.886 | 0.899 | 0.839 | 0.74 | 0.461 | 0.639 | 0.756 | 0.41 | 0.252 | 0.202 | 0.835 | 0.555 | 0.767 | 0.527 | 0.439
16 | NCI-H1993 | 0.501 | 0.551 | 0.623 | 0.526 | 0.528 | 0.553 | 0.524 | 0.577 | 0.485 | 0.52 | 0.51 | 0.507 | 0.527 | 0.452 | 0.375 | 0.907 | 0.847 | 0.857 | 1.08 | 0.812
17 | LOU-NH91 | 0.727 | 0.719 | 0.566 | 0.714 | 0.683 | 0.713 | 0.719 | 0.707 | 0.482 | 0.308 | 0.772 | 0.793 | 0.402 | 0.344 | 0.359 | 0.982 | 0.889 | 0.709 | 0.885 | 0.65
18 | SK-MES-1 | 0.607 | 0.611 | 0.529 | 0.456 | 0.179 | 0.881 | 0.912 | 0.656 | 0.177 | 0.13 | 0.506 | 0.546 | 0.533 | 0.215 | 0.158 | 1.06 | 1.11 | 0.905 | 0.907 | 0.301
19 | LCLC-103H | 0.462 | 0.462 | 0.404 | 0.457 | 0.541 | 0.451 | 0.484 | 0.389 | 0.232 | 0.191 | 0.661 | 0.687 | 0.589 | 0.336 | 0.256 | 0.791 | 0.676 | 0.715 | 0.756 | 0.799
20 | NCI-H1915 | 0.613 | 0.585 | 0.584 | 0.604 | 0.546 | 0.462 | 0.34 | 0.334 | 0.16 | 0.135 | 0.283 | 0.307 | 0.33 | 0.196 | 0.0537 | 0.543 | 0.426 | 0.501 | 0.481 | 0.538
21 | IA-LM | – | – | – | – | – | – | – | – | – | – | – | – | – | – | – | 0.993 | 0.89 | 1.05 | 0.905 | 1.11
22 | NCI-H1734 | 0.648 | 0.612 | 0.569 | 0.465 | 0.254 | 0.256 | 0.238 | 0.239 | 0.227 | 0.157 | 0.647 | 0.7 | 0.685 | 0.161 | 0.0924 | 0.819 | 0.887 | 0.814 | 0.741 | 0.31
23 | NCI-H2170 | 0.684 | 0.73 | 0.647 | 0.769 | 0.754 | 0.72 | 0.656 | 0.699 | 0.38 | 0.164 | 0.892 | 0.921 | 0.972 | 0.229 | 0.142 | 0.698 | 0.88 | 0.742 | 0.799 | 0.782
24 | HCC-15 | 0.745 | 0.641 | 0.446 | 0.662 | 0.447 | 0.291 | 0.355 | 0.18 | 0.0787 | 0.0703 | 0.39 | 0.394 | 0.426 | 0.117 | 0.104 | 0.875 | 0.815 | 0.83 | 0.747 | 0.786
25 | SK-LU-1 | 0.366 | 0.315 | 0.273 | 0.205 | 0.166 | 0.347 | 0.313 | 0.304 | 0.156 | 0.0914 | 0.505 | 0.436 | 0.43 | 0.202 | 0.173 | 0.833 | 0.827 | 0.723 | 0.671 | 0.441
26 | NCI-H2023 | 0.42 | 0.381 | 0.488 | 0.226 | 0.102 | 0.266 | 0.305 | 0.235 | 0.0983 | 0.0659 | 0.631 | 0.569 | 0.533 | 0.131 | 0.0889 | 0.489 | 0.613 | 0.632 | 0.553 | 0.376
27 | HCC-366 | 0.961 | 0.847 | 0.827 | 0.821 | 0.208 | 0.0833 | 0.0907 | 0.0487 | 0.032 | 0.0245 | 0.333 | 0.371 | 0.433 | 0.181 | 0.0229 | 0.352 | 0.398 | 0.312 | 0.353 | 0.191
28 | NCI-H1623 | 0.429 | 0.434 | 0.47 | 0.389 | 0.471 | 0.4 | 0.441 | 0.414 | 0.397 | 0.342 | – | – | – | – | – | – | – | – | – | –
29 | ABC-1 | 0.576 | 0.571 | 0.424 | 0.373 | 0.276 | 0.191 | 0.164 | 0.191 | 0.207 | 0.182 | – | – | – | – | – | 1.25 | 1.08 | 0.869 | 1.17 | 0.933

Reference: the supplement of paper PMC10307832
